Series [1] is described as follows: Metabolic stability in rat liver microsomes assessed as half life. The format is ADME, Microsome. On the technique in general: Liver microsomes are vesicles of endoplasmic reticulum, rich in cytochrome P450 enzymes.
Series [2] is described as follows: Metabolic stability in human liver microsomes assessed as half life. The format is ADME, Microsome.
Series [3] can be described thus: Metabolic stability in mouse liver microsomes assessed as half life. The format is ADME, Microsome.
Series [4] is described as follows: GSH reactivity in human liver cytosol assessed as GSH adduct formation. The format is ADME, subcellular, Cytoplasm.
A short description of series [5]: Cmax in Balb/c mouse at 10 mg/kg, po. The format is ADME, organism-based. Details: route oral, dose 10 mg/kg. To be noted: in vivo.
Series [6] deals with T1, Nuclear receptor ROR-gamma (Homo sapiens, UniProt P51449).
T1 sequence (P51449 whole entry): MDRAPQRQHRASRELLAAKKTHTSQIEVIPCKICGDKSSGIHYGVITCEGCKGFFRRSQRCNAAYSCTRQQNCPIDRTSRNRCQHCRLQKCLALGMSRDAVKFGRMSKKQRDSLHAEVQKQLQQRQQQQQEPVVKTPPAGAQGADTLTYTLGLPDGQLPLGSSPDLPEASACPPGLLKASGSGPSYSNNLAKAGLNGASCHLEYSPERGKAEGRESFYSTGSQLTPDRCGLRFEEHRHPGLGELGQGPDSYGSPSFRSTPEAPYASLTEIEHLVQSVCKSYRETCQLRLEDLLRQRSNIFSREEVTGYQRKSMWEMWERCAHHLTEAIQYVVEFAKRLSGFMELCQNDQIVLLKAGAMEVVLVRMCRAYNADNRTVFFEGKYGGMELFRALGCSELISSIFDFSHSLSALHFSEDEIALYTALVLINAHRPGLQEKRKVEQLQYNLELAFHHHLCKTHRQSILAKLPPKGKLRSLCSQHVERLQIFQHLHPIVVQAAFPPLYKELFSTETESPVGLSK
Briefly: Inverse agonist activity at Gal4-fused RORgammat (unknown origin).

Series [7] deals with T1, Nuclear receptor ROR-gamma. The series is described as follows: Inverse agonist activity at RORgammat in CD3 and CD28-stimulated human whole blood assessed as reduction in IL17A production incubated for 1 hr before CD3 and CD28 stimulation for 20 hrs by AlphaLISA method. The format is tissue-based. Background: Alpha assays give light when donor and acceptor beads are brought close together.

Series [8] is described as follows: Drug concentration in Balb/c mouse at 10 mg/kg, po measured after 24 hrs. The format is ADME, organism-based. To be noted: in vivo, read-out: Drug uptake.
The next series relates to Mus musculus. The series is described as follows: Protection against recombinant human IL23-induced acanthosis C57BL/6 mouse model assessed as reduction in ear swelling at 50 mg/kg, po administered bid for 9 days. The format is functional, organism-based. Particulars: time 9.0 day.

Each structure is given as a SMILES string. Activity calls are given as the source filed them. No cut-off for these calls is given here. Some results are limits rather than exact numbers.

Usually half-life stands for how long it takes for the measured level to halve. As to `Cc1cc2c(cc1C(F)(C(F)(F)F)C(F)(F)F)CC[C@H]1N(C(=O)[C@H]3CC[C@H](C(=O)O)CC3)CC[C@@]21S(=O)(=O)c1ccc(F)cc1`, the half-life in series [1], in [2] and in series [3] was > 2 h each time.
`C[C@H]1C[C@H](C(=O)O)CC[C@H]1C(=O)N1CC[C@@]2(S(=O)(=O)c3ccc(F)cc3)c3ccc(C(F)(C(F)(F)F)C(F)(F)F)cc3CC[C@@H]12` [BMS-986251]: the half-life in series [1], in series [2] and in series [3] was > 2 h each time. In series [4], the Activity is given as 6%.
Usually Cmax stands for the highest concentration seen after dosing. As a reminder, the EC50 is the midpoint of the concentration-response curve. As to `N#Cc1cc2c(cc1C(F)(C(F)(F)F)C(F)(F)F)CC[C@H]1N(C(=O)[C@H]3CC[C@H](C(=O)O)CC3)CC[C@@]21S(=O)(=O)c1ccc(F)cc1`, the half-life in series [1] was 1.45 h; in series [2], > 2 h; in series [3], > 2 h. Also, in [5], the maximum concentration (Cmax) amounted to 8600 nM. The concentration giving a half-maximal response (EC50) in series [6] was 17 nM; in [7], 13 nM. The concentration at 24 h in series [8] is 1600 nM.
As to `O=C(O)[C@H]1CC[C@H](C(=O)N2CC[C@@]3(S(=O)(=O)c4ccc(F)cc4)c4cc(Cl)c(C(F)(C(F)(F)F)C(F)(F)F)cc4CC[C@@H]23)CC1`, the half-life is 1.38 h in series [1], > 2 h in series [2] and > 2 h in [3].
Consider `O=C(O)[C@H]1CC[C@H](C(=O)N2CC[C@](c3ccc(C(F)(C(F)(F)F)C(F)(F)F)cc3)(S(=O)(=O)c3ccc(F)cc3)C2)CC1`, for which the inhibition result in the series with Mus musculus is “Active”.
`O=C(O)[C@H]1CC[C@H](C(=O)N2CC[C@@]3(S(=O)(=O)c4ccc(F)cc4)c4ccc(C(F)(C(F)(F)F)C(F)(F)F)cc4CC[C@@H]23)CC1`: the concentration in series [5] peaked (Cmax) at 1400 nM. Further, the concentration at 24 h in series [8] is 400 nM.
With `C[C@H]1C[C@H](C(=O)O)CC[C@H]1C(=O)N1CC[C@@]2(S(=O)(=O)c3ccccc3)c3ccc(C(F)(C(F)(F)F)C(F)(F)F)cc3CC[C@@H]12`, in series [7], the EC50 was determined as 52 nM.

The values above are taken from ChEMBL document CHEMBL4699477, “Tricyclic sulfones as potent, selective and efficacious RORγt inverse agonists - Exploring C6 and C8 SAR using late-stage functionalization” (Bioorg Med Chem Lett, 2020).
